Reference: patent US20240279278A1, “NMU RECEPTOR 2 AGONISTS” (Boehringer Ingelheim International GmbH, priority 2023, published 2024)
Starred links: 1 amine or outer side, 2 acyl side, 3 side chain; linkers in the order of their positions; H or OH if unused. Non-standard residues stand in square brackets, D forms with d. Residues, ends and D or L forms follow the SMILES beside them. *: point of attachment. Pipz(1-CH2CO,4-CH2CH2NH) = O=C(CN1CCN(CCN[*:1])CC1)[*:2]; C18 diacid = O=C(O)CCCCCCCCCCCCCCCCC(=O)*; γGlu = O=C(O)[C@H](CCC(=O)[*:2])N[*:1]; 2Pal = N[C@@H](Cc1ccccn1)C(=O)O; 3Pal = N[C@@H](Cc1cccnc1)C(=O)O; 4Pal = N[C@@H](Cc1ccncc1)C(=O)O; NMeL = CN[C@@H](CC(C)C)C(=O)O; NMeA = CN[C@@H](C)C(=O)O; Nle = CCCC[C@H](N)C(=O)O; Sar = CNCC(=O)O

How the values were obtained:
Format in all cases: cell-based
human NMUR1 receptor = molecular target: T1, human NMUR1 receptor (Homo sapiens, UniProt Q9HB89); experiment: IP1 Gq HTRF assay, activation of human NMUR1 in buffer; settings: CHO-K1 cells expressing human NMUR1, stimulation buffer with 0.1% BSA; read-out: EC50 (hNMUR1) buffer
T1 construct: expressed in transfected cells; host or cells: CHO-K1
T1 sequence (Q9HB89 1-426): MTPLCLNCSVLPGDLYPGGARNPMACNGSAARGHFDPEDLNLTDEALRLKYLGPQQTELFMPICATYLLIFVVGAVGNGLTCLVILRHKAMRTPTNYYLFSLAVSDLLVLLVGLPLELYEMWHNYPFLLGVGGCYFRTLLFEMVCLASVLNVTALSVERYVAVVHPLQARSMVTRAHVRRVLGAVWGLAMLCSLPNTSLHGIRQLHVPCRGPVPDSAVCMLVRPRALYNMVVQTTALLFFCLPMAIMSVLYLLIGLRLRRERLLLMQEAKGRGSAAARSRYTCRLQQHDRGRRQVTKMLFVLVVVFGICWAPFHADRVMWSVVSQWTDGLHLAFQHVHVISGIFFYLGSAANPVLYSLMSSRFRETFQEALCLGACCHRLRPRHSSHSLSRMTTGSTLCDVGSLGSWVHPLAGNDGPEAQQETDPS
Method in brief: (§1)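 IP-One HTRF competition (665/620 nm ratio) read after 1 h agonist exposure at 37 °C in pH 7.4 HEPES/HBSS stimulation buffer containing 50 mM LiCl, 0.1% BSA, 1% DMSO. Cells: CHO-K1 stably expressing human NMUR2 or NMUR1. EC50 by 4-parameter nonlinear regression of 8-point curves.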

human NMUR2 receptor [1] = molecular target: T2, human NMUR2 receptor (Homo sapiens, UniProt Q9GZQ4); experiment: IP1 Gq HTRF assay, activation of human NMUR2 in buffer; design: expressed in transfected cells; host or cells: CHO-K1; settings: CHO-K1 cells expressing human NMUR2, stimulation buffer with 0.1% BSA; read-out: EC50 (hNMUR2) buffer
Method in brief: as §1

human NMUR2 receptor [2] = molecular target: T2, human NMUR2 receptor; experiment: IP1 Gq HTRF assay, activation of human NMUR2 in human plasma; design: expressed in transfected cells; host or cells: CHO-K1; settings: CHO-K1 cells expressing human NMUR2, 100% human plasma; read-out: EC50 (hNMUR2) human plasma
Method in brief: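 EC50 obtained via 4-parameter sigmoidal regression of HTRF IP-One signal (665 nm/620 nm), which falls as intracellular IP1 rises. Stimulation: 1 h, 37° C, peptides in human plasma plus 50 mM LiCl, 1% DMSO final, on NMUR2-expressing CHO-K1 cells, 8 concentrations.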

T2 sequence (Q9GZQ4 whole entry): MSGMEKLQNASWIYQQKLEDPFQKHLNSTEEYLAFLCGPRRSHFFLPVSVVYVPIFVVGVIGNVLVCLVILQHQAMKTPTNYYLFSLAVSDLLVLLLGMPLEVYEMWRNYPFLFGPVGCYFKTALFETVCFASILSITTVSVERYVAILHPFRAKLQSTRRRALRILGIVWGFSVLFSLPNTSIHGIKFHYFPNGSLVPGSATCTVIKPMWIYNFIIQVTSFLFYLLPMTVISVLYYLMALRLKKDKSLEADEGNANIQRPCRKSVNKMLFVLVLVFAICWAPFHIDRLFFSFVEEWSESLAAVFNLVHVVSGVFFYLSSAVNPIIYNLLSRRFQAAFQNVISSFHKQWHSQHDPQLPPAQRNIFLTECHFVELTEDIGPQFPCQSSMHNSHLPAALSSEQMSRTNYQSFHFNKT

| Compound | EC50 (human NMUR1 receptor) | EC50 (human NMUR2 receptor [1]) | EC50 (human NMUR2 receptor [2]) |
| --- | --- | --- | --- |
| CCCC[C@H](NC(=O)[C@H](CC(C)C)N(C)C(=O)[C@H](Cc1ccccc1)NC(=O)[C@H](Cc1ccc(O)cc1)NC(=O)CN1CCN(CCNC(=O)CN(C)C(=O)CN(C)C(=O)CN(C)C(=O)CN(C)C(=O)CN(C)C(=O)CN(C)C(=O)CN(C)C(=O)CN(C)C(=O)CN(C)C(=O)CN(C)C(=O)CN(C)C(=O)CN(C)C(=O)CN(C)C(=O)CN(C)C(=O)CN(C)C(=O)CC[C@H](NC(=O)CC[C@H](NC(=O)CC[C@H](NC(=O)CCCCCCCCCCCCCCCCC(=O)O)C(=O)O)C(=O)O)C(=O)O)CC1)C(=O)N[C@@H](Cc1ccccn1)C(=O)N1CCC[C@H]1C(=O)N[C@@H](CCCNC(=N)N)C(=O)NCC(N)=O [Compound 56, C18DA-gGlu3-Sar15-AEPipAc-Tyr-Phe-NMeLeu-Nle-2Pal-Pro-Arg-Gly-NH2] ({C18 diacid-γGlu-γGlu-γGlu}-[Sar][Sar][Sar][Sar][Sar][Sar][Sar][Sar][Sar][Sar][Sar][Sar][Sar][Sar][Sar][Pipz(1-CH2CO,4-CH2CH2NH)]YF[NMeL][Nle][2Pal]PRG-NH2) | > 1000 nM | 72 nM | 432 nM |
| CCCC[C@H](NC(=O)[C@H](CC(C)C)N(C)C(=O)[C@H](Cc1ccccc1)NC(=O)[C@H](Cc1ccc(O)cc1)NC(=O)CN1CCN(CCNC(=O)CN(C)C(=O)CN(C)C(=O)CN(C)C(=O)CN(C)C(=O)CN(C)C(=O)CN(C)C(=O)CN(C)C(=O)CN(C)C(=O)CN(C)C(=O)CN(C)C(=O)CN(C)C(=O)CN(C)C(=O)CN(C)C(=O)CN(C)C(=O)CN(C)C(=O)CC[C@H](NC(=O)CC[C@H](NC(=O)CC[C@H](NC(=O)CCCCCCCCCCCCCCCCC(=O)O)C(=O)O)C(=O)O)C(=O)O)CC1)C(=O)N[C@@H](Cc1cccnc1)C(=O)N(C)[C@@H](C)C(=O)N[C@@H](CCCNC(=N)N)C(=O)NCC(N)=O [Compound 57, C18DA-gGlu3-Sar15-AEPipAc-Tyr-Phe-NMeLeu-Nle-3Pal-NMeAla-Arg-Gly-NH2] ({C18 diacid-γGlu-γGlu-γGlu}-[Sar][Sar][Sar][Sar][Sar][Sar][Sar][Sar][Sar][Sar][Sar][Sar][Sar][Sar][Sar][Pipz(1-CH2CO,4-CH2CH2NH)]YF[NMeL][Nle][3Pal][NMeA]RG-NH2) | > 1000 nM | 110 nM | 509 nM |
| CCCC[C@H](NC(=O)[C@H](CC(C)C)N(C)C(=O)[C@H](Cc1ccccc1)NC(=O)[C@H](Cc1ccc(O)cc1)NC(=O)CN1CCN(CCNC(=O)CN(C)C(=O)CN(C)C(=O)CN(C)C(=O)CN(C)C(=O)CN(C)C(=O)CN(C)C(=O)CN(C)C(=O)CN(C)C(=O)CN(C)C(=O)CN(C)C(=O)CN(C)C(=O)CN(C)C(=O)CN(C)C(=O)CN(C)C(=O)CN(C)C(=O)CC[C@H](NC(=O)CC[C@H](NC(=O)CC[C@H](NC(=O)CCCCCCCCCCCCCCCCC(=O)O)C(=O)O)C(=O)O)C(=O)O)CC1)C(=O)N[C@@H](Cc1ccncc1)C(=O)N(C)[C@@H](C)C(=O)N[C@@H](CCCNC(=N)N)C(=O)NCC(N)=O [Compound 58, C18DA-gGlu3-Sar15-AEPipAc-Tyr-Phe-NMeLeu-Nle-4Pal-NMeAla-Arg-Gly-NH2] ({C18 diacid-γGlu-γGlu-γGlu}-[Sar][Sar][Sar][Sar][Sar][Sar][Sar][Sar][Sar][Sar][Sar][Sar][Sar][Sar][Sar][Pipz(1-CH2CO,4-CH2CH2NH)]YF[NMeL][Nle][4Pal][NMeA]RG-NH2) | > 1000 nM | 140 nM | 709 nM |
| CCCC[C@H](NC(=O)[C@H](CC(C)C)N(C)C(=O)[C@H](Cc1ccccc1)NC(=O)[C@H](Cc1ccc(O)cc1)NC(=O)CN1CCN(CCNC(=O)CN(C)C(=O)CN(C)C(=O)CN(C)C(=O)CN(C)C(=O)CN(C)C(=O)CN(C)C(=O)CN(C)C(=O)CN(C)C(=O)CN(C)C(=O)CN(C)C(=O)CN(C)C(=O)CN(C)C(=O)CC[C@H](NC(=O)CC[C@H](NC(=O)CC[C@H](NC(=O)CCCCCCCCCCCCCCCCCCC(=O)O)C(=O)O)C(=O)O)C(=O)O)CC1)C(=O)N[C@@H](CCN)C(=O)N(C)[C@@H](C)C(=O)N[C@@H](CCCNC(=N)N)C(=O)NCC(N)=O [Compound 59, C20DA-gGlu3-Sar12-AEPipAc-Tyr-Phe-NMeLeu-Nle-Dbu-NMeAla-Arg-Gly-NH2] | > 1000 nM | 5 nM | 12.1 nM |
